{"source": "ChEMBL document CHEMBL1201862", "about": "“PubChem BioAssay data set” (2004)", "key": {"Vero": {"test_system": "Vero", "test": "viability of Vero cells under compound – cytotoxicity control for flavivirus capping enzyme inhibitors (AID 588742)", "assay_type": "functional", "conditions": "Chlorocebus sabaeus"}, "Beta-galactosidase [1]": {"biological_target": "T1, Beta-galactosidase (Escherichia coli, UniProt Q8VNN2)", "T1 sequence (Q8VNN2 whole entry)": "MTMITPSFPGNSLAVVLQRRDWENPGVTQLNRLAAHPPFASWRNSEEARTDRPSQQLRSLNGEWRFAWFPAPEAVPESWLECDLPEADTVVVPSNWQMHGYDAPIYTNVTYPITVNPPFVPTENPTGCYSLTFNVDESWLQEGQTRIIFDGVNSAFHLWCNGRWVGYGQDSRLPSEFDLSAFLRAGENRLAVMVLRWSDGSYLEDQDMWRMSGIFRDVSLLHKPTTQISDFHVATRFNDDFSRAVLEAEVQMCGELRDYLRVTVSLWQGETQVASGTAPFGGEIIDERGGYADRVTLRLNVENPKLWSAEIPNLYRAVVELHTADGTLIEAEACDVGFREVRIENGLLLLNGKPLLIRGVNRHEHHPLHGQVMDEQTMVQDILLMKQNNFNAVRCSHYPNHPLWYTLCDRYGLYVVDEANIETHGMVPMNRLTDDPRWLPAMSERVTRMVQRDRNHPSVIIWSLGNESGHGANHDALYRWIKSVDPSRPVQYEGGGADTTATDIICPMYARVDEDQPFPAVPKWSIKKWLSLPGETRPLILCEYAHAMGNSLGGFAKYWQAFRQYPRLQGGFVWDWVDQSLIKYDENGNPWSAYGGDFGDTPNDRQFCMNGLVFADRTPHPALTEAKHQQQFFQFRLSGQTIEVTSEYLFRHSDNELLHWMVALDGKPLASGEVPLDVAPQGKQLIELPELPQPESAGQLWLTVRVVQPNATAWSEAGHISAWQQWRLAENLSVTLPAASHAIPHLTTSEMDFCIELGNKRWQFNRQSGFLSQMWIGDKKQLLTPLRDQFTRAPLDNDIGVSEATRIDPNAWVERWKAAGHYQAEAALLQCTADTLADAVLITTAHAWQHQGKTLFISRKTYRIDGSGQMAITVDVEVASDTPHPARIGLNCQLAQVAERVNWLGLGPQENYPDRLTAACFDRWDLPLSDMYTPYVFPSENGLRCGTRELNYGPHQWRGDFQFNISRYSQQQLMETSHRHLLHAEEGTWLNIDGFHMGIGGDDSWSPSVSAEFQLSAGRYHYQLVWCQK", "test": "PubChem AID 485352", "assay_type": "functional"}, "Beta-galactosidase [2]": {"biological_target": "T1, Beta-galactosidase", "assay_type": "functional"}, "[3]": {"biological_target": "Bifunctional protein GlmU (Mycobacterium tuberculosis, UniProt P9WMN3)", "sequence (P9WMN3 whole entry)": "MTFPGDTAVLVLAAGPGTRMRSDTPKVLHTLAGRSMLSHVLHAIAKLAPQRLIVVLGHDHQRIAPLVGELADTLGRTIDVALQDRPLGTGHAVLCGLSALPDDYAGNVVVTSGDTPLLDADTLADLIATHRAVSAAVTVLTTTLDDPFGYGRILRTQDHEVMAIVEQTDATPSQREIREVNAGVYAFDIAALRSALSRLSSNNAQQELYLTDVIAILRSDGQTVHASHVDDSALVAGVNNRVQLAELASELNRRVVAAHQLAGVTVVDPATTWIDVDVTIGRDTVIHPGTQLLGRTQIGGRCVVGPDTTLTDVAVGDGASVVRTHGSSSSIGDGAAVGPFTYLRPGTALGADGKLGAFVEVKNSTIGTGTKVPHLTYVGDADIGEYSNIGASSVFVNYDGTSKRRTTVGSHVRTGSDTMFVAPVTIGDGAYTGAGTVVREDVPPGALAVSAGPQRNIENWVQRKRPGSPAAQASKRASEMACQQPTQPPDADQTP", "test": "Inhibitors of Mycobacterial Glucosamine-1-phosphate acetyl transferase (GlmU). Secondary screen.", "design": "species or system Mycobacterium tuberculosis H37Rv"}, "Genome polyprotein": {"biological_target": "Genome polyprotein (dengue virus type 2, UniProt P29990)", "sequence (P29990 2492-3391 limits assumed)": "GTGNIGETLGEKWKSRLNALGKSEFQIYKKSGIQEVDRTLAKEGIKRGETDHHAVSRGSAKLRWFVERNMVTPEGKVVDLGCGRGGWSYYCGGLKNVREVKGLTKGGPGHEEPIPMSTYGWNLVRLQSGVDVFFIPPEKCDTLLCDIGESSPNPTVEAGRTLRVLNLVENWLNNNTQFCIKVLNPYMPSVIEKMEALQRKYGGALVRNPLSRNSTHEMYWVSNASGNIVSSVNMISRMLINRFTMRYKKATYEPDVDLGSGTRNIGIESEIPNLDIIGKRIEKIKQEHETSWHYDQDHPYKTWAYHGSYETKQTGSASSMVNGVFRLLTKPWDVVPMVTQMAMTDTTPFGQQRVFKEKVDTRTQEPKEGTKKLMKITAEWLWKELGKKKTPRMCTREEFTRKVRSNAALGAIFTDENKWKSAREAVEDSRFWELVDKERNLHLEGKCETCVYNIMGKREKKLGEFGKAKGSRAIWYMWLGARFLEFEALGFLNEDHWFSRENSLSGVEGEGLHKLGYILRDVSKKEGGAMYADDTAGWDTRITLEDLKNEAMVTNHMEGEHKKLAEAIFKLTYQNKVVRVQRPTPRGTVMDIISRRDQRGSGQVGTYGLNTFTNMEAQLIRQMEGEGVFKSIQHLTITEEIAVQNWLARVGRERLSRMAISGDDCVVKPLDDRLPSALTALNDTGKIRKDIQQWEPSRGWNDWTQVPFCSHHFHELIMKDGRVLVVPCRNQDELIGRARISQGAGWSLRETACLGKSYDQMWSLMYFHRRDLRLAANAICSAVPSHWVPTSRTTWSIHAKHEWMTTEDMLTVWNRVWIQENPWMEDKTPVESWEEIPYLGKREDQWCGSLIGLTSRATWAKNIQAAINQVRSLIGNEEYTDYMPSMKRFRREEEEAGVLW", "test": "flavivirus cap methylation enzyme inhibition – biochemical, confirmation dose response, primary screen (AID 588689)", "assay_type": "functional"}, "Mu-type opioid receptor": {"biological_target": "Mu-type opioid receptor (Homo sapiens, UniProt P35372)", "sequence (P35372 whole entry)": "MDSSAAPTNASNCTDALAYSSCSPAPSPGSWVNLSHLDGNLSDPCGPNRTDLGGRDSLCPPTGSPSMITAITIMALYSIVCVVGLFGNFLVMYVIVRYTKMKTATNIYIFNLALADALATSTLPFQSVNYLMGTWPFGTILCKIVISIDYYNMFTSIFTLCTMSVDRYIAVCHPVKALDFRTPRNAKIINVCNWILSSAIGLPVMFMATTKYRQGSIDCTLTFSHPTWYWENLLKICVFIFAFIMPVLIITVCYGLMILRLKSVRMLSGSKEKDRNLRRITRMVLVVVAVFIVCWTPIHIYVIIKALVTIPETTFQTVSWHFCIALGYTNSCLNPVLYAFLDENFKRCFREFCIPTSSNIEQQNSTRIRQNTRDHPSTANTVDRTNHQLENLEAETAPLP", "test": "HTS Image-Based Screen for Agonists of the MOR Receptor. [Related pubchem assays (depositor defined):AID1777, AID1785, AID1786, AID2133]", "assay_type": "functional"}, "[4]": {"biological_target": "G-protein coupled receptor 55 (Homo sapiens, UniProt Q9Y2T6)", "sequence (Q9Y2T6 whole entry)": "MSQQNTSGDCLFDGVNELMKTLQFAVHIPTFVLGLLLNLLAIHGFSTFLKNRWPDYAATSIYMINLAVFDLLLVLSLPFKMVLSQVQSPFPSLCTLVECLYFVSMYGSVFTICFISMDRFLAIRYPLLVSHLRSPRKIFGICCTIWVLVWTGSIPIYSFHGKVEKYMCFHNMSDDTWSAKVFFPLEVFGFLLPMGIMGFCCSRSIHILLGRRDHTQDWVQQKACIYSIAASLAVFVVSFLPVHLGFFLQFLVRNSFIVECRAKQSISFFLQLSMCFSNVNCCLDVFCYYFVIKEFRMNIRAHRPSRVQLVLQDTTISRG", "test": "inhibition of LPI-stimulated GPR55 beta-arrestin translocation – imaging, U2OS, beta-arrestin-GFP, LPI agonist, primary screen (AID 2013);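 note: antagonist potency measured as reduced agonist-driven arrestin aggregation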", "assay_type": "functional"}, "Paired box protein Pax-8": {"biological_target": "Paired box protein Pax-8 (Homo sapiens, UniProt Q06710)", "sequence (Q06710 whole entry)": "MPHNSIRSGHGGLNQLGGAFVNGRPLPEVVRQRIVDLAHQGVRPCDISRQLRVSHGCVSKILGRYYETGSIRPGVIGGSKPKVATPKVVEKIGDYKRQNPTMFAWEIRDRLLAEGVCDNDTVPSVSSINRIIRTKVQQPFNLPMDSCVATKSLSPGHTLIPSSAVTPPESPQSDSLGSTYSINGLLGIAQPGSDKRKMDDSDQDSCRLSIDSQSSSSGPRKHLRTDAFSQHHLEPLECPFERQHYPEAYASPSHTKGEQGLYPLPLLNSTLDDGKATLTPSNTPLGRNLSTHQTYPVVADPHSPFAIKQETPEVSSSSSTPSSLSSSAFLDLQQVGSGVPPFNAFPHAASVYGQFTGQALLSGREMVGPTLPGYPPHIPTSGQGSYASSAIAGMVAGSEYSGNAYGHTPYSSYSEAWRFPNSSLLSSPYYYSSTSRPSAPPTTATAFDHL", "test": "PAX8 transcriptional activity inhibition in RMG-I – RMG-I cells, luciferase, cherry-pick, dose response (AID 687027);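 note: luciferase reporter driven by Pax8 target thyroperoxidase promoter measured by SteadyGlo luminescence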", "assay_type": "functional, cell-based"}, "[5]": {"biological_target": "T2, Delta-type opioid receptor (Homo sapiens, UniProt P41143)", "T2 sequence (P41143 whole entry)": "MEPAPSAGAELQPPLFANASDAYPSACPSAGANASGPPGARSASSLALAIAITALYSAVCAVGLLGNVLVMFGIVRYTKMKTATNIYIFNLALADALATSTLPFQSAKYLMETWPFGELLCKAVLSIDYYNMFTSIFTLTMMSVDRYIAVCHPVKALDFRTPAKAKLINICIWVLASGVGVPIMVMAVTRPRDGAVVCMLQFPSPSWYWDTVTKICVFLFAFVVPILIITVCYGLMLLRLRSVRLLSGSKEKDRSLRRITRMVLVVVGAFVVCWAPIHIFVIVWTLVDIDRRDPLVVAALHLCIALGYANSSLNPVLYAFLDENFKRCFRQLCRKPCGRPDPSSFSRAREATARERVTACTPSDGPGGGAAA", "test": "HTS Image-Based Screen for Agonists of the DOR Receptor. [Related pubchem assays (depositor defined):AID1777, AID1786, AID2133]", "assay_type": "functional"}, "CHO": {"test_system": "CHO", "test": "CHO cell viability loss, potency – luminescence, cytotoxicity control for TLR9-MyD88 binding inhibitor project, dose response (AID 588339);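 note: CHO cells stably coexpressing TLR9 and MyD88 fusions from primary screen; compound exposure lasted 48 hours before viability readout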", "assay_type": "functional, cell-based, hamster", "conditions": "Cricetulus griseus"}, "Beta Lactamase": {"biological_target": "Beta Lactamase (Pseudomonas aeruginosa, UniProt Q932Y6)", "sequence (Q932Y6 whole entry)": "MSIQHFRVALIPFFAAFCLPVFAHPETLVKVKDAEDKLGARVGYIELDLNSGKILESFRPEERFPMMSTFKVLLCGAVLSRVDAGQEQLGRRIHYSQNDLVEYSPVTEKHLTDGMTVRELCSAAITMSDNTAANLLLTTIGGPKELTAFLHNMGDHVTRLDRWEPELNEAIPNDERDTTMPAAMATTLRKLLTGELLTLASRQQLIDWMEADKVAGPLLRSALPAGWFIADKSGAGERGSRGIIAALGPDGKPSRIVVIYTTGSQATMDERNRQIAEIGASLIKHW", "test": "BLA reporter interference, concentration series – BLA reporter cells, FRET fluorescence, artefact control for TLR9-MyD88 binding inhibitor project, dose response (AID 588341);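 note: cell based assay in CHO-K1 cells stably expressing beta-lactamase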", "assay_type": "cell-based"}, "[6]": {"biological_target": "T3, Kappa-type opioid receptor (Homo sapiens, UniProt P41145)", "T3 sequence (P41145 whole entry)": "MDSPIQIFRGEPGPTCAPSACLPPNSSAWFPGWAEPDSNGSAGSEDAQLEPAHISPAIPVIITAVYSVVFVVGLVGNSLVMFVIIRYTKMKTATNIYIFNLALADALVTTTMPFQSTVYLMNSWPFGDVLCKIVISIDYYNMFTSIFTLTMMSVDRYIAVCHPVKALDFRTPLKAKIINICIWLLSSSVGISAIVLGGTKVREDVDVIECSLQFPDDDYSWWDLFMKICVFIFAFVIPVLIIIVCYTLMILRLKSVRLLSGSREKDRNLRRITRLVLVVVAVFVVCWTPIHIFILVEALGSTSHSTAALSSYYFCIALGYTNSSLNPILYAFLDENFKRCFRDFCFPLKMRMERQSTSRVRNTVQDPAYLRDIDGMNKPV", "assay_type": "functional"}, "[7]": {"biological_target": "T3, Kappa-type opioid receptor", "assay_type": "functional", "remark": "listed apart in the source"}, "[8]": {"biological_target": "T2, Delta-type opioid receptor", "test": "HTS Image-Based Screen for Antagonists of the DOR Receptor. [Related pubchem assays (depositor defined):AID1777, AID1785, AID1786, AID2133]", "assay_type": "functional"}, "[9]": {"biological_target": "T4, Type-1 angiotensin II receptor (Homo sapiens, UniProt P30556)", "T4 sequence (P30556 whole entry)": "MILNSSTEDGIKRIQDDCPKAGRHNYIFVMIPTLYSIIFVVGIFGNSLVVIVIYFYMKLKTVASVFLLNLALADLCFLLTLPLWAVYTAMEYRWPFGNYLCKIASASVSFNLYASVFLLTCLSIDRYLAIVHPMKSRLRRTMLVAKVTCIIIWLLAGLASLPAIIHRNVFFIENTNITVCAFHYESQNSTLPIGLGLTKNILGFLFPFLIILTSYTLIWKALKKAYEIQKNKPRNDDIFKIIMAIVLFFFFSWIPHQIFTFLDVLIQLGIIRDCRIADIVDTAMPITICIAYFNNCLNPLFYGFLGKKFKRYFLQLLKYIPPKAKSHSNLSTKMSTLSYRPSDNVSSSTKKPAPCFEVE", "test": "antagonism of angiotensin II type 1 receptor – cell-based, uHTS hits, selectivity assay for APJ receptor antagonist project, dose response (AID 463214)", "assay_type": "functional"}, "[10]": {"biological_target": "T5, Tyrosine-protein phosphatase non-receptor type 7 (Homo sapiens, UniProt P35236)", "T5 sequence (P35236 whole entry)": "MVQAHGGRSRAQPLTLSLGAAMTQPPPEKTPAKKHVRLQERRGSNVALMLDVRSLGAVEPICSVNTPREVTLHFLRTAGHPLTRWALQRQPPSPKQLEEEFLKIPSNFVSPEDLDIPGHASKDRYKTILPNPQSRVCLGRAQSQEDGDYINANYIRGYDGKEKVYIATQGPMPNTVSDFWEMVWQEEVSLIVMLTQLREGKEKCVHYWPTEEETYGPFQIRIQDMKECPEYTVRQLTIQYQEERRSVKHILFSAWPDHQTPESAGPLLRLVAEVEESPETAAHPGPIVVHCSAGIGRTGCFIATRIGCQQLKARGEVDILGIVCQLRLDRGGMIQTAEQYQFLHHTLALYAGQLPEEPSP", "test": "HePTP tyrosine phosphatase activity blockers – biochemical, absorbance, leukemia target, primary screen (AID 521)", "assay_type": "functional"}}, "note": "The source made the active and inactive calls.", "data": [{"smiles": "Cc1c(Nc2cc(Cl)c3nonc3c2[N+](=O)[O-])c(=O)n(-c2ccccc2)n1C", "values": [{"measurement": "CC50", "setting": "Vero", "result": "12.7 µM (active)"}, {"measurement": "EC50", "setting": "Beta-galactosidase [1]", "result": "> 40 µM (inactive)"}, {"measurement": "EC50", "setting": "Beta-galactosidase [2]", "result": "> 31.5 µM (inactive)"}, {"measurement": "IC50", "setting": "[3]", "result": "123 µM (active)"}, {"measurement": "IC50", "setting": "Genome polyprotein", "result": "21.4 µM (active)"}, {"measurement": "EC50", "setting": "Mu-type opioid receptor", "result": "> 32 µM (inactive)"}, {"measurement": "IC50", "setting": "[4]", "result": "3.48 µM (active)"}, {"measurement": "AC50", "setting": "Paired box protein Pax-8", "result": "8.97 µM (active)"}, {"measurement": "EC50", "setting": "[5]", "result": "> 32 µM (inactive)"}, {"measurement": "IC50", "setting": "CHO", "result": "1.53 µM (active)"}, {"measurement": "IC50", "setting": "Beta Lactamase", "result": "6 µM (active)"}, {"measurement": "IC50", "setting": "[6]", "result": 30, "unit": "µM"}, {"measurement": "IC50", "setting": "[7]", "result": "4.14 µM (active)"}, {"measurement": "IC50", "setting": "[8]", "result": "> 32 µM (inactive)"}, {"measurement": "IC50", "setting": "[9]", "result": "2.33 µM (active)"}]}, {"smiles": "NS(=O)(=O)c1cc2c(cc1C(F)(F)F)NCNS2(=O)=O", "note": "[HYDROFLUMETHIAZIDE]", "values": [{"measurement": "IC50", "setting": "[10]", "result": "> 100 µM (not active)"}]}]}
